The target in one data set is T1, rat VPAC2 receptor (Rattus norvegicus, UniProt P35000).
T1 sequence (P35000 23-437): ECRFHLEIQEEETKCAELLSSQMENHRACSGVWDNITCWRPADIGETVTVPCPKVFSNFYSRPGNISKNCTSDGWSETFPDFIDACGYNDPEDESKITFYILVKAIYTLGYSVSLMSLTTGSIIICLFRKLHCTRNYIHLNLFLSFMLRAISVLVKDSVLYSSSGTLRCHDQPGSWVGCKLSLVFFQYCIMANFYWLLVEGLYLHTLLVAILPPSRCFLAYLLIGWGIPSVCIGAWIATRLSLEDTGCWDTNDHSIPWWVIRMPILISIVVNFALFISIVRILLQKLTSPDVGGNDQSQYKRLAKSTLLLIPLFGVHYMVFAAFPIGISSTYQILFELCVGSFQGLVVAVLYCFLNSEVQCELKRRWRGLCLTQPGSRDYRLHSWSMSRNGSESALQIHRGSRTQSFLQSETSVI
Briefly: DiscoveRx in vitro potency, CHO-PO cells transiently transfected with rat VPAC 2 receptor DNA. The data set is classed as cell-based. Further details: expressed in transfected cells; host or cells: CHO-PO, transient. How it is done: Also, the cells are washed twice. […] The stimuli are present for 30 minutes. Then, the assay buffer is gently removed.

For the next data set, the target named is T2, human VPAC1 (Homo sapiens, UniProt P32241).
T2 sequence (P32241 31-457): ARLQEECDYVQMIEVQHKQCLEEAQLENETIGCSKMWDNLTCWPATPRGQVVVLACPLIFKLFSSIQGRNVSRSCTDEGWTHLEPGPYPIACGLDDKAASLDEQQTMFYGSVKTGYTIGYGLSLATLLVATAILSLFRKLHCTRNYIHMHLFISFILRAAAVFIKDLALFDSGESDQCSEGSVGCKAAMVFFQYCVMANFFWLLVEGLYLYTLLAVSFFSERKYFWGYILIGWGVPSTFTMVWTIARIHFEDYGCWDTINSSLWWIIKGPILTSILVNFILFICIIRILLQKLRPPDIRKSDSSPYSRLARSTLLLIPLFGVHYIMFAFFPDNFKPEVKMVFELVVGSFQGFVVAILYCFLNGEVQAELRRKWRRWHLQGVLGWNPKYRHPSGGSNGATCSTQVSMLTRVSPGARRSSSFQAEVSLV
Briefly: Filter binding assay, membranes of cells transiently transfected with human VPAC1, 125I-labeled VIP tracer (Table 2). Details: expressed in transfected cells. To be noted: read-out: Human VPAC1 Receptor Binding. A digest of the protocol: (§1)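 Scintillation counting of filter-retained radioligand gave the read-out. Compounds competed with the labelled tracer (about 40000 cpm) for 2.5 μg membranes during 1 hour of shaking in HEPES pH 7.4 buffer containing 0.5% BSA.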

In data set [1] the target is T3, human VPAC2 (Homo sapiens, UniProt P41587).
T3 construct: expressed in transfected cells
T3 sequence (P41587 24-438): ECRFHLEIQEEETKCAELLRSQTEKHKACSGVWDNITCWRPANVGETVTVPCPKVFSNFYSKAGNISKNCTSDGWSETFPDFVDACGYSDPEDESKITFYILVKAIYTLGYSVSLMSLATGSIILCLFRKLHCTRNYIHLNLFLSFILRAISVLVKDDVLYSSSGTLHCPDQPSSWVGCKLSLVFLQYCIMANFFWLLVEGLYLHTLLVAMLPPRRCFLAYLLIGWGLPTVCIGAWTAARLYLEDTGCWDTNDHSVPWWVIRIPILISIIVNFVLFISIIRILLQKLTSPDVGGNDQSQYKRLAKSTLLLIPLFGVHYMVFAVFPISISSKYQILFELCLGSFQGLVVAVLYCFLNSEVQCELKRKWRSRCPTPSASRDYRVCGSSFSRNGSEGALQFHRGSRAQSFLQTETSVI
Description: Alpha screen cAMP in vitro potency, human VPAC2 receptor. The data set is classed as cell-based. To be noted: cAMP generation; single result from two analyses performed in a single run; read-out: Human VPAC2 Receptor: Alpha Screen EC50. Put shortly: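 Dissociated cells, 50,000 per point in stimulation buffer, were incubated with stimuli and AlphaScreen acceptor beads for 60 min.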

Data set [2] in a line: Rat serum stability studies (remaining active peptide by DiscoveRx cAMP on CHO-VPAC2 cells). The data set is classed as in vitro ADME. Put shortly: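 Rat serum, 18 h: +aprotinin aliquot at 4° C, no-aprotinin aliquot at 37° C. Then 30 min RT step, supernatant removed, 1 h shaking at 300 rpm. DiscoveRx cAMP kit on CHO-VPAC2; EC50 from cAMP data vs standards.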
Data set [3] deals with T3, human VPAC2. Briefly: Filter binding assay, membranes of stable VPAC2 cell line, 125I-labeled VIP tracer (Table 2). To be noted: read-out: Human VPAC2 Receptor Binding. Put shortly:
as §1

Where no end group is shown, it is not given here. [ ]: non-standard residue; d: D form. The star is where a group is joined. hArg = N=C(N)NCCCC[C@H](N)C(=O)O; Orn = NCCC[C@H](N)C(=O)O; Hexanoyl = CCCCCC(=O)*; Aib = CC(C)(N)C(=O)O Some results are limits rather than exact numbers.

In general, EC50 refers to the midpoint of the concentration-response curve.

As for `CCCCCC(=O)N[C@@H](Cc1c[nH]cn1)C(=O)N[C@@H](CO)C(=O)N[C@@H](CC(=O)O)C(=O)N[C@@H](C)C(=O)N[C@H](C(=O)N[C@@H](Cc1ccccc1)C(=O)N[C@H](C(=O)N[C@@H](CC(=O)O)C(=O)N[C@@H](CC(N)=O)C(=O)N[C@@H](Cc1ccc(O)cc1)C(=O)N[C@H](C(=O)N[C@@H](CCCCNC(=N)N)C(=O)N[C@@H](CC(C)C)C(=O)N[C@@H](CCCNC(=N)N)C(=O)NC(C)(C)C(=O)N[C@@H](CCC(N)=O)C(=O)N[C@H](C(=O)N[C@@H](C)C(=O)N[C@@H](C)C(=O)NC(C)(C)C(=O)N[C@@H](CCCCN)C(=O)N[C@@H](Cc1ccc(O)cc1)C(=O)N[C@@H](CC(C)C)C(=O)N[C@@H](CCC(N)=O)C(=O)N[C@@H](CO)C(=O)N[C@H](C(=O)N[C@@H](CCCCNC(=N)N)C(=O)N[C@@H](CC(N)=O)C(=O)N[C@@H](CCCCNC(=N)N)C(=O)N[C@@H](CCCCNC(=N)N)C(=O)N[C@@H](Cc1ccc(O)cc1)C(=O)NCC(=O)NCC(=O)N1CCC[C@H]1C(=O)N[C@@H](CO)C(=O)N[C@@H](CO)C(=O)NCC(=O)N[C@@H](C)C(=O)N1CCC[C@H]1C(=O)N1CCC[C@H]1C(=O)N1CCC[C@H]1C(=O)N[C@@H](CO)C(=O)O)[C@@H](C)CC)C(C)C)[C@@H](C)O)[C@@H](C)O)C(C)C` [Agonist P338], the results for the EC50 on rat VPAC2 receptor and at human VPAC2 [1] were 0.07 nM and 0.46 nM, respectively. In addition, the IC50 is > 3000 nM at human VPAC1 and 0.76 nM at human VPAC2 [3]. Besides, the “Rat Serum Stability (estimated purity in % after 18 hours)” value in data set [2] was 36.61%.

Take `CCCCCC(=O)N[C@@H](Cc1c[nH]cn1)C(=O)N[C@@H](CO)C(=O)N[C@@H](CC(=O)O)C(=O)N[C@@H](C)C(=O)N[C@H](C(=O)N[C@@H](Cc1ccccc1)C(=O)N[C@H](C(=O)N[C@@H](CC(=O)O)C(=O)N[C@@H](CC(N)=O)C(=O)N[C@@H](Cc1ccc(O)cc1)C(=O)N[C@H](C(=O)N[C@@H](CCCNC(=N)N)C(=O)N[C@@H](CC(C)C)C(=O)N[C@@H](CCCNC(=N)N)C(=O)NC(C)(C)C(=O)N[C@@H](CCC(N)=O)C(=O)N[C@H](C(=O)N[C@@H](C)C(=O)N[C@@H](C)C(=O)NC(C)(C)C(=O)N[C@@H](CCCCN)C(=O)N[C@@H](Cc1ccc(O)cc1)C(=O)N[C@@H](CC(C)C)C(=O)N[C@@H](CCC(N)=O)C(=O)N[C@@H](CO)C(=O)N[C@H](C(=O)N[C@@H](CCCN)C(=O)N[C@@H](CCCN)C(=O)NCC(=O)NCC(=O)N1CCC[C@H]1C(=O)N[C@@H](CO)C(=O)N[C@@H](CO)C(=O)NCC(=O)N[C@@H](C)C(=O)N1CCC[C@H]1C(=O)N1CCC[C@H]1C(=O)N1CCC[C@H]1C(=O)N[C@@H](CO)C(=O)O)[C@@H](C)CC)C(C)C)[C@@H](C)O)[C@@H](C)O)C(C)C` [Agonist P352]: the results for the EC50 on rat VPAC2 receptor and at human VPAC2 [1] were 0.09 nM and 0.14 nM, respectively. The figures for the IC50 at human VPAC1 and at human VPAC2 [3] were > 3000 nM and 0.6 nM, respectively. Also, the “Rat Serum Stability (Estimated purity in % after 72 hours)” value in data set [2] is listed as 2.2%. In data set [2], the “Rat Serum Stability (estimated purity in % after 18 hours)” value is reported as 45.09%.

With “Hexanoyl-HSDAVFTDNYTRLR[Aib]KVAA[Aib]KYLQSIKNKRYGGPSSGAPPPS [Agonist P321]”, the EC50 was found to be 0.04 nM on rat VPAC2 receptor and 0.38 nM at human VPAC2 [1]. For the same molecule, the results for the IC50 on human VPAC1 and on human VPAC2 [3] were 429 nM and 0.29 nM, respectively.

Turning to “Hexanoyl-HSDAVFTDNYTRLR[Aib]QKAA[Aib]KYLQSIKNKRYGGPSSGAPPPS [Agonist P323]”, the EC50 was found to be 0.07 nM on rat VPAC2 receptor and 0.23 nM at human VPAC2 [1]. Besides, the IC50 on human VPAC1 was > 3000 nM; at human VPAC2 [3] it was 0.32 nM. Further, the “Rat Serum Stability (estimated purity in % after 18 hours)” value in data set [2] was 16.81%.

Regarding “Hexanoyl-HSDAVFTDNYTRLR[Aib]QVAA[Aib][Orn]YLQSIKNKRYGGPSSGAPPPS [Agonist P342]”, the concentration for a half-maximal effect (EC50) at rat VPAC2 receptor is 0.06 nM; on human VPAC2 [1], 0.21 nM. The IC50 at human VPAC1 is > 3000 nM; on human VPAC2 [3], 0.35 nM. Moreover, the “Rat Serum Stability (estimated purity in % after 18 hours)” value in data set [2] is listed as 25.96%.

For the molecule “Hexanoyl-HSDAVFTDNYTRL[hArg][Orn]QVAAKKYLQSIKNKRYGGPSSGAPPPS [Agonist P308]”, the EC50 turned out to be 0.09 nM on rat VPAC2 receptor and 0.26 nM on human VPAC2 [1]. In addition, the IC50 on human VPAC1 was determined as 262 nM; at human VPAC2 [3] it was 0.34 nM. Besides, in data set [2], the “Rat Serum Stability (estimated purity in % after 18 hours)” value was 0.97%.

Turning to “Hexanoyl-HSDAVFTDNYTR[Aib]R[Aib]QVAA[Aib]KYLQSIKNKRYGGPSSGAPPPS [Agonist P346]”, the results for the EC50 on rat VPAC2 receptor and at human VPAC2 [1] were 0.06 nM and 0.23 nM, respectively. The IC50 is > 3000 nM at human VPAC1 and 0.25 nM on human VPAC2 [3]. Moreover, in data set [2], the “Rat Serum Stability (Estimated purity in % after 72 hours)” value was 27.6%. The “Rat Serum Stability (estimated purity in % after 18 hours)” value in data set [2] was 43.44%.

On to “Hexanoyl-HSDAVFTDNYT[Orn]LR[Aib]QVAA[Aib]KYLQSIKNKRYGGPSSGAPPPS [Agonist P344]”, for which the EC50 on rat VPAC2 receptor was 0.06 nM; at human VPAC2 [1] it was 0.13 nM. In addition, the IC50 at human VPAC1 was > 3000 nM; on human VPAC2 [3] it was 0.25 nM. Moreover, the “Rat Serum Stability (Estimated purity in % after 72 hours)” value in data set [2] is recorded as 43.0%. Moreover, in data set [2], the “Rat Serum Stability (estimated purity in % after 18 hours)” value was 50.19%.

“Hexanoyl-HSDAVFTDQYTRLR[Aib]QVAA[Aib]KYLQSIKQKRYGGPSSGAPPPS [Agonist P315]”: the EC50 at rat VPAC2 receptor came to 0.04 nM; on human VPAC2 [1], 0.19 nM. Besides, the IC50 at human VPAC1 is > 3000 nM; on human VPAC2 [3] it was 0.29 nM. Moreover, the “Rat Serum Stability (estimated purity in % after 18 hours)” value in data set [2] is reported as 24.00%.

Values taken from patent US20080026996A1, “Selective Vpac2 Receptor Reptide Agonists” (ELI LILLY AND COMPANY, priority 2004, published 2008).
